# Values of other authors, collected in publication PMC7395068, “The evolution of strategies to minimise the risk of human drug-induced liver injury (DILI) in drug discovery and development” (Archives of Toxicology, 2020).
# Like-named read-outs stand apart in the source and are kept apart here.
# Key:
# [1] = cited from earlier work
# [2] = cited from earlier work; remark: listed apart in the source
# [3] = system: primary human hepatocytes, NIH3T3 fibroblasts, BSEP, CYP3A4; conditions: In vitro Assay; ref Schadt 2015; cited from earlier work
# [4] = system: THLE or HepG2 cells, isolated mitochondria, BSEP; conditions: In vitro Assay; ref Aleo 2019; cited from earlier work
# PHH = conditions: In vitro Assay; ref Proctor 2017; cited from earlier work
# hLiMTs = conditions: In vitro Assay; ref Proctor 2017; cited from earlier work
# PHH spheroids = conditions: In vitro Assay; ref Vorrink 2018; cited from earlier work
# [5] = system: HepG2 C3A spheroid, BSEP, Glu/Gal in HepG2 cells, bioactivation; conditions: In vitro Assay; ref Williams 2019; cited from earlier work
# [6] = cited from earlier work; remark: listed apart in the source
# [7] = system: THLE-Null and THLE-3A4 cells; conditions: In vitro Assay; ref Gustafsson 2014; cited from earlier work
# [8] = system: HepG2 cells, primary human hepatocytes; conditions: In vitro Assay; ref Garside 2014; cited from earlier work
# rBsep = conditions: In vitro Assay; ref Dawson 2012; cited from earlier work
# [9] = LTKB DILIrank category, ref Chen 2016
# [10] = FDA drug labelling score, ref Chen 2011
# [11] = binary DILI call, ref Chen 2016
# [12] = binary in vivo human DILI call, ref Chen 2016
# [13] = human DILI, LTKB DILIrank category, ref Chen 2016
# [14] = FDA drug labelling score, scale 1-8, ref Chen 2011
compound,measurement,setting,value
Nc1nc(NC2CC2)c2ncn([C@H]3C=C[C@@H](CO)C3)c2n1 [abacavir],DILI severity category,[1]; [9],vMost-DILI-Concern
same,DILI Score (FDA) (1-8),[2]; [10],8
C[C@H]1O[C@H](O[C@H]2[C@H](O)[C@@H](O)[C@@H](O[C@H]3[C@H](O)[C@@H](O)C(O)O[C@@H]3CO)O[C@@H]2CO)[C@H](O)[C@@H](O)[C@@H]1N[C@H]1C=C(CO)[C@@H](O)[C@H](O)[C@H]1O (some centres unmarked) [acarbose],"DILI +VE (5-8), DILI -VE (-4)",[1]; in vivo,+VE
same,DILI severity category,[1]; in vivo,vMost-DILI-Concern
same,DILI Score (FDA) (1-8),[2]; in vivo,5
CN(C)c1nc(N(C)C)nc(N(C)C)n1 [altretamine],DILI severity category,[1]; [9],Ambiguous DILI-concern
same,"DILI +VE (5-8), DILI -VE (-4)",[1]; [11],-VE
same,DILI Score (FDA) (1-8),[2]; [10],2
CC(C(=O)O)c1ccc2oc(-c3ccc(Cl)cc3)nc2c1 (centres unmarked) [benoxaprofen],"DILI +VE (5-8), DILI -VE (-4)",[1]; ref Chen 2016,+VE
same,DILI severity category,[1]; ref Chen 2016,vMost-DILI-Concern
same,Cellular toxicity (3T3 cells),[3],-VE
same,Combined Assay,[3],+VE
same,GSH adduct HML,[3],-VE
same,Hepatocyte cellular toxicity,[3],-VE
same,MitoTox 3T3,[3],-VE
same,TDI CYP3A4,[3],-VE
same,hBSEP inhibition,[3],-VE
same,Partition Hybrid HRM Score,[4],+VE
same,Ro2 Hybrid HRM Score,[4],+VE
same,PHH ATP <100uM,PHH,-VE
same,hLiMTs ATP <100uM,hLiMTs,-VE
same,hLiMTs ATP <20 x Cmax,PHH spheroids,-VE
same,Bayesian Machine Learning,[5],+VE
same,In vivo DILI,[6]; ref Aleo 2019,+VE
same,In vivo DILI,[6]; ref Dawson 2012,+VE
same,In vivo DILI,[6]; ref Garside 2014,+VE
same,In vivo DILI,[6]; ref Gustafsson 2014,+VE
same,In vivo DILI,[6]; ref Proctor 2017,+VE
same,In vivo DILI,[6]; ref Schadt 2015,+VE
same,In vivo DILI,[6]; ref Vorrink 2018,+VE
same,In vivo DILI,[6]; ref Williams 2019,+VE
same,THLE-Null,[7],-VE
same,THLE-Null/3A4,[7],-VE
same,Cluster 1-6 +VE Assay,[8],+VE
same,Inhibition of rBsep cutoff<1& cmax u>.2,rBsep,+VE
same,Inhibition of rBsep cutoff<3,rBsep,+VE
CC(C)NCC(O)COc1ccc(COCCOC(C)C)cc1 (centres unmarked) [bisoprolol],DILI severity category,[1]; [9],Ambiguous DILI-concern
same,"DILI +VE (5-8), DILI -VE (-4)",[1]; [11],-VE
same,DILI Score (FDA) (1-8),[2]; [10],3
Cc1ccc(-c2cc(C(F)(F)F)nn2-c2ccc(S(N)(=O)=O)cc2)cc1 [celecoxib],"DILI +VE (5-8), DILI -VE (-4)",[1]; ref Chen 2016,+VE
same,DILI severity category,[1]; ref Chen 2016,vLess-DILI-Concern
same,Cellular toxicity (3T3 cells),[3],+VE
same,GSH adduct HML,[3],-VE
same,Hepatocyte cellular toxicity,[3],-VE
same,MitoTox 3T3,[3],-VE
same,TDI CYP3A4,[3],-VE
same,hBSEP inhibition,[3],-VE
same,PHH ATP <100uM,PHH,+VE (IC50 threshold of 100 µM)
same,hLiMTs ATP <100uM,hLiMTs,+VE (IC50 threshold of 100 µM)
same,hLiMTs ATP <20 x Cmax,PHH spheroids,+VE (IC20 < 20 × Cmax.tot cut-off)
same,Bayesian Machine Learning,[5],+VE
same,In vivo DILI,[6]; ref Garside 2014,+VE
same,In vivo DILI,[6]; ref Gustafsson 2014,+VE
same,In vivo DILI,[6]; ref Proctor 2017,+VE
same,In vivo DILI,[6]; ref Schadt 2015,+VE
same,In vivo DILI,[6]; ref Vorrink 2018,+VE
same,In vivo DILI,[6]; ref Williams 2019,+VE
same,THLE-Null,[7],+VE
same,Cluster 1-6 +VE Assay,[8],+VE
Nc1ccn([C@@H]2O[C@H](CO)[C@@H](O)[C@@H]2O)c(=O)n1 [cytarabine],"DILI +VE (5-8), DILI -VE (-4)",[1]; in vivo,+VE
same,DILI severity category,[1]; in vivo,vMost-DILI-Concern
same,In vivo DILI,[6]; in vivo,+VE
same,DILI Score (FDA) (1-8),[2]; in vivo,3
O=C(O)c1ccc(-n2nc(-c3ccccc3O)nc2-c2ccccc2O)cc1 [deferasirox],"DILI +VE (5-8), DILI -VE (-4)",[1]; [12],+VE
same,DILI severity category,[1]; [13],vMost-DILI-Concern
same,DILI Score (FDA) (1-8),[2]; [14],7
CC(=O)O[C@@]12CO[C@@H]1C[C@H](O)[C@@]1(C)C(=O)[C@H](O)C3=C(C)[C@@H](OC(=O)[C@H](O)[C@@H](NC(=O)OC(C)(C)C)c4ccccc4)C[C@@](O)([C@@H](OC(=O)c4ccccc4)[C@H]21)C3(C)C [docetaxel],"DILI +VE (5-8), DILI -VE (-4)",[1]; [12],+VE
same,DILI severity category,[1]; [13],vLess-DILI-Concern
same,DILI Score (FDA) (1-8),[2]; [14],8
CC[C@@H](CO)NCCN[C@@H](CC)CO [ethambutol],"DILI +VE (5-8), DILI -VE (-4)",[1]; ref Chen 2016,+VE
same,DILI severity category,[1]; ref Chen 2016,vMost-DILI-Concern
same,Partition Hybrid HRM Score,[4],-VE
same,Ro2 Hybrid HRM Score,[4],-VE
same,In vivo DILI,[6]; ref Aleo 2019,+VE
same,DILI Score (FDA) (1-8),[2]; ref Chen 2011,8
CCc1cccc2c3c([nH]c12)C(CC)(CC(=O)O)OCC3 (centres unmarked) [etodolac],"DILI +VE (5-8), DILI -VE (-4)",[1]; ref Chen 2016,+VE
same,DILI severity category,[1]; ref Chen 2016,vMost-DILI-Concern
same,Ro2 Hybrid HRM Score,[4],+VE
same,In vivo DILI,[6]; ref Aleo 2019,+VE
same,DILI Score (FDA) (1-8),[2]; ref Chen 2011,8
O=C(O)Cc1csc(-c2ccc(Cl)cc2)n1 [fenclozic acid],"DILI +VE (5-8), DILI -VE (-4)",[1]; ref Chen 2016,+VE
same,DILI severity category,[1]; ref Chen 2016,vMost-DILI-Concern
same,Bayesian Machine Learning,[5],+VE
same,In vivo DILI,[6]; ref Dawson 2012,+VE
same,In vivo DILI,[6]; ref Garside 2014,+VE
same,In vivo DILI,[6]; ref Gustafsson 2014,+VE
same,In vivo DILI,[6]; ref Williams 2019,+VE
same,THLE-Null,[7],-VE
same,THLE-Null/3A4,[7],-VE
same,Cluster 1-6 +VE Assay,[8],+VE
same,Inhibition of rBsep cutoff<1& cmax u>.2,rBsep,-VE
same,Inhibition of rBsep cutoff<3,rBsep,-VE
